What was measured:
Experiment in all cases: KinomeScan kinase panel, single concentration 10 µM
Type in all cases: binding
KinomeScan kinase panel [1] = target: T1, KinomeScan kinase panel (Homo sapiens, UniProt P49760); details: CLK2, 10 µM; read-out: score (%)
T1 construct: purchased DiscoveRx (KinomeScan)

KinomeScan kinase panel [2] = target: T2, KinomeScan kinase panel (Homo sapiens, UniProt Q13177); details: PAK2, 10 µM; read-out: score (%)
T2 construct: purchased DiscoveRx (KinomeScan)

KinomeScan kinase panel [3] = target: T3, KinomeScan kinase panel (Homo sapiens, UniProt Q9Y616); details: IRAK3, 10 µM; read-out: score (%)
T3 construct: purchased DiscoveRx (KinomeScan)
T3 sequence (Q9Y616 1-596): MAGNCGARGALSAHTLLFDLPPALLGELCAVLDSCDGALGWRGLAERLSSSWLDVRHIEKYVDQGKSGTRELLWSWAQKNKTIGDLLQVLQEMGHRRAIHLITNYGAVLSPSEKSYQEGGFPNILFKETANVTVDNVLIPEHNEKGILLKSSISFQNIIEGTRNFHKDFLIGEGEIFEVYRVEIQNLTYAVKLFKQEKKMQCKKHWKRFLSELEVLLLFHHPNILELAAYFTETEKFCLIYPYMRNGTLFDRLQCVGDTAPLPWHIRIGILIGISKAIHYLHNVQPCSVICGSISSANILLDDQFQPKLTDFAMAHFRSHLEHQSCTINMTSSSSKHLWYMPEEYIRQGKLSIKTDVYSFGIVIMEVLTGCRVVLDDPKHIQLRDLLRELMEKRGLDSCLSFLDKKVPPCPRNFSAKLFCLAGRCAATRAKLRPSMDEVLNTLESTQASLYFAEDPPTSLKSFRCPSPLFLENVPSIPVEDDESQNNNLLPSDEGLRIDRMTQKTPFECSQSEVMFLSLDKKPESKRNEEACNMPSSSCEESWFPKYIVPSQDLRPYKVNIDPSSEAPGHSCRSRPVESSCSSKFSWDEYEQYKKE

KinomeScan kinase panel [4] = target: T4, KinomeScan kinase panel (Homo sapiens, UniProt O75385); details: kinase ULK1; 10 µM
T4 construct: purchased DiscoveRx (KinomeScan)
T4 sequence (O75385 1-1050): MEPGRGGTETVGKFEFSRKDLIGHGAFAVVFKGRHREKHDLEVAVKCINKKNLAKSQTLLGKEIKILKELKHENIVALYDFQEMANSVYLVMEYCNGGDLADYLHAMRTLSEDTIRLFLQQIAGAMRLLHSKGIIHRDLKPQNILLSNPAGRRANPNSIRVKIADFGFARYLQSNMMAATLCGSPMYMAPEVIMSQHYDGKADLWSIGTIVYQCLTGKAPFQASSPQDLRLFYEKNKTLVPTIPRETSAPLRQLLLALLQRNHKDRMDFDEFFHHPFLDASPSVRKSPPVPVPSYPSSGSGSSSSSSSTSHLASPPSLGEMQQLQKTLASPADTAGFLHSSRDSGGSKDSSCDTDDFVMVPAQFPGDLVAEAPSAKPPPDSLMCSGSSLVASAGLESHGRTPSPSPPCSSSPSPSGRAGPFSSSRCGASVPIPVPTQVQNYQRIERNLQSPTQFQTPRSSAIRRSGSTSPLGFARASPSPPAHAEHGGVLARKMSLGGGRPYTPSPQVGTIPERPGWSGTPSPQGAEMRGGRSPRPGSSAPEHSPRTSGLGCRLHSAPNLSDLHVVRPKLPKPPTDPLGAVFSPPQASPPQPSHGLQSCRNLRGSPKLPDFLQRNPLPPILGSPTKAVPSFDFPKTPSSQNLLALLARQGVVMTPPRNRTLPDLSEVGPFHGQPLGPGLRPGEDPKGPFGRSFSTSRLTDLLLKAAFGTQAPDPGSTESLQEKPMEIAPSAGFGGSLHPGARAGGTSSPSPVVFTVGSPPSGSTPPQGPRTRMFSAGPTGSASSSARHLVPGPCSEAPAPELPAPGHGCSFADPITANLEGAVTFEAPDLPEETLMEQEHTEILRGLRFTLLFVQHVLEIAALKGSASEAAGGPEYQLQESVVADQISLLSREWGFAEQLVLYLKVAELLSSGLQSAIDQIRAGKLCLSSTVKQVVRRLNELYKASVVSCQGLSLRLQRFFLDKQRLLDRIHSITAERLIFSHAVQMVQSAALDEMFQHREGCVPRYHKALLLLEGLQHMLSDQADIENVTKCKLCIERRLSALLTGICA

KinomeScan kinase panel [5] = target: T5, KinomeScan kinase panel (Homo sapiens, UniProt P24941); details: CDK2, 10 µM
T5 construct: purchased DiscoveRx (KinomeScan)

KinomeScan kinase panel [6] = target: T6, KinomeScan kinase panel (Homo sapiens, UniProt Q16566); details: CAMK4, 10 µM; read-out: score (%)
T6 construct: purchased DiscoveRx (KinomeScan)
T6 sequence (Q16566 1-473): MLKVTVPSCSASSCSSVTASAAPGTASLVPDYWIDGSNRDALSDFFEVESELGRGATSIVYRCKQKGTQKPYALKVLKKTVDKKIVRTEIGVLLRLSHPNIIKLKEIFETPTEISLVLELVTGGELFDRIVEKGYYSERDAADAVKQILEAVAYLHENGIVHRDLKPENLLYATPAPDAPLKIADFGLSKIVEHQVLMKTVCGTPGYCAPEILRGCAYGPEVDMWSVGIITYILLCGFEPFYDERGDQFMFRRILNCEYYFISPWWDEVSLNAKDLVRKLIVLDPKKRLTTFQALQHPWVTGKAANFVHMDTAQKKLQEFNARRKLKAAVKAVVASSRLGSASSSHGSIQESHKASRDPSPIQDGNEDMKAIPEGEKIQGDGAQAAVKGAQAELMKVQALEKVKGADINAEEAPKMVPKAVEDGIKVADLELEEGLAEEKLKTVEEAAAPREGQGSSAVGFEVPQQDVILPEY

KinomeScan kinase panel [7] = target: T7, KinomeScan kinase panel (Homo sapiens, UniProt Q07002); details: PCTK3, 10 µM; read-out: score (%)
T7 construct: purchased DiscoveRx (KinomeScan)

KinomeScan kinase panel [8] = target: T8, KinomeScan kinase panel (Homo sapiens, UniProt Q9Y2H1); details: NDR2, 10 µM; read-out: score (%)
T8 construct: purchased DiscoveRx (KinomeScan)
T8 sequence (Q9Y2H1 whole entry): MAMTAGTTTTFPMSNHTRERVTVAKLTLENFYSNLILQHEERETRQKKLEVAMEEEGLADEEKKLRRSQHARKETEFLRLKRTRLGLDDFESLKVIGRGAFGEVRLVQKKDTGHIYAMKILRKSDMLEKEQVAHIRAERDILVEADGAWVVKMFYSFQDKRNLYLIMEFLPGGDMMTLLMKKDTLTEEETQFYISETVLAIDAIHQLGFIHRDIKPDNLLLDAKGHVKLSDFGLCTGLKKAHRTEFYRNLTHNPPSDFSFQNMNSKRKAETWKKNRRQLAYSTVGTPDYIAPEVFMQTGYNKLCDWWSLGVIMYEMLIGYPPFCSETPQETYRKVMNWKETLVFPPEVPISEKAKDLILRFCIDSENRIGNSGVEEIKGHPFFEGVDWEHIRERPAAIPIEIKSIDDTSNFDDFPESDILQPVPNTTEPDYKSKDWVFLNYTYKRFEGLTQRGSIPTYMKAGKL

T2 sequence (Q13177 whole entry): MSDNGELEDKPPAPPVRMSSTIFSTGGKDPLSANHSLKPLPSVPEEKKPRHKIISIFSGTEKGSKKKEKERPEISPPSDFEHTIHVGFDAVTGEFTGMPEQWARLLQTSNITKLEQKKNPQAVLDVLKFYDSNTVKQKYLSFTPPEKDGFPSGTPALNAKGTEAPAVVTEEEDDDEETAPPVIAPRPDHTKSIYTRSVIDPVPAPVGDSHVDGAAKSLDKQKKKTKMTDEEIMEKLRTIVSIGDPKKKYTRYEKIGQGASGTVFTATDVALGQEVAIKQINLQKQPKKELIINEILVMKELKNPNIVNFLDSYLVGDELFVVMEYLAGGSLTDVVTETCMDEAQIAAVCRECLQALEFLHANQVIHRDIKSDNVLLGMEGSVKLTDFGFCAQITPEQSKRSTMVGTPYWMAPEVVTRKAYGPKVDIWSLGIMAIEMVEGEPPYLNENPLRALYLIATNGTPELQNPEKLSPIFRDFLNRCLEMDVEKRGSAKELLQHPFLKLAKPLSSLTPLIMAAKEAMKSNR
T7 sequence (Q07002 whole entry): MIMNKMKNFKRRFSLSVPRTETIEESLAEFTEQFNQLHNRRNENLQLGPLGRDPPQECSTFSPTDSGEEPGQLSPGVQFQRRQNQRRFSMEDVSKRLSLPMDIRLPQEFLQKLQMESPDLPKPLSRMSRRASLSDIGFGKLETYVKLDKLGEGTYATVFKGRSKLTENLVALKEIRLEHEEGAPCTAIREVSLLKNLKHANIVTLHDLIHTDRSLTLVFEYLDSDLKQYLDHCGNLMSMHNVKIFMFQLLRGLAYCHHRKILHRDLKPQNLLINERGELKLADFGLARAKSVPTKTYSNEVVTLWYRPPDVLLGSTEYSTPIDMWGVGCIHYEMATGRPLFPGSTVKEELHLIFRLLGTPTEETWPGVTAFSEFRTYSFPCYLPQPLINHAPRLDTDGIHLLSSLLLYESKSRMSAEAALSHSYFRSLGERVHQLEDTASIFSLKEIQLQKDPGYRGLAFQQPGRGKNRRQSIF
T1 sequence (P49760 whole entry): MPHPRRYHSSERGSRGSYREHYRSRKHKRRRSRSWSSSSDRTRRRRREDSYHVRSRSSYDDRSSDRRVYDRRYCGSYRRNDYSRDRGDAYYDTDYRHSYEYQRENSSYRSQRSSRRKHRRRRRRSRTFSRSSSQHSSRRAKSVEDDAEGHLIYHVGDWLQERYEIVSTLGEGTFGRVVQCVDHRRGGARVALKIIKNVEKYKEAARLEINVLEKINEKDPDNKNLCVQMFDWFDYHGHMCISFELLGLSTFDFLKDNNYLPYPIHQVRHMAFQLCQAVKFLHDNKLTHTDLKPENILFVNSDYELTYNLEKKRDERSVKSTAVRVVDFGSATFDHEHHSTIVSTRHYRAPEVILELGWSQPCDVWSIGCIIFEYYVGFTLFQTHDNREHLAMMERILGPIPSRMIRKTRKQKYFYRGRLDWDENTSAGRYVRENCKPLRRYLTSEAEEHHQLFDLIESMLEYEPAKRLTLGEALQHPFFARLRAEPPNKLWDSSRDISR

Compound	remaining binding at 10 µM (KinomeScan kinase panel [1])	remaining binding at 10 µM (KinomeScan kinase panel [2])	remaining binding at 10 µM (KinomeScan kinase panel [3])	score (%) (KinomeScan kinase panel [4])	score (%) (KinomeScan kinase panel [5])	remaining binding at 10 µM (KinomeScan kinase panel [6])	remaining binding at 10 µM (KinomeScan kinase panel [7])	remaining binding at 10 µM (KinomeScan kinase panel [8])
CCN1CCN(Cc2ccc(NC(=O)c3ccc(C)c(NC(=O)c4cncc(-c5cccs5)c4)c3)cc2C(F)(F)F)CC1 [ALW-II-41-27]	2.4%	> 30%	> 30%	nb (Hits values higher than 30% were considered negative (no binding: nb))	nb (Hits values higher than 30% were considered negative (no binding: nb))	> 30%	> 30%	11%
CCN1CCN(Cc2ccc(NC(=O)c3ccc(C)c(/C=C/c4cnc5[nH]ccc5c4Cl)c3)cc2C(F)(F)F)CC1 [HG-6-63-01, (E)-3-(2-(4-chloro-1H-pyrrolo[2,3-b]pyridin-5-yl)vinyl)-N-(4-((4-ethylpiperazin-1-yl)methyl)-3-(trifluoromethyl)phenyl)-4-methylbenzamide]	> 30%	> 30%	> 30%	8.7%	nb (Hits values higher than 30% were considered negative (no binding: nb))	> 30%	> 30%	> 30%
CCN1CCN(Cc2ccc(NC(=O)c3ccc(C)c(C#Cc4cccnc4)c3)cc2C(F)(F)F)CC1 [XMD15-44]	> 30%	84%	> 30%	24%	10%	> 30%	6.2%	8.7%

— PMC4457528, “Identification of Novel Small Molecule Inhibitors of Oncogenic RET Kinase” (PLoS ONE, 2015)
